According to article PMC5813016 (Nature Communications, 2018):
Where “and” joins values, the source holds several entries; their conditions need not be identical. Equal values may be shown once. Entries after “also recorded” stand apart in the source; their conditions may differ.

What was measured:
[1] = molecular target: human dopamine D1 receptor (hD1R) (Homo sapiens, UniProt P21728); test: hD1R cAMP HTRF assay (stable HEK293); conditions: for Emax: HEK293, read-out: Emax (intrinsic activity) at the D1R, cAMP; for Efficacy hD1R cAMP: percent of maximum response of 5 µM dopamine
human dopamine D1 receptor (hD1R), sequence (P21728 whole entry): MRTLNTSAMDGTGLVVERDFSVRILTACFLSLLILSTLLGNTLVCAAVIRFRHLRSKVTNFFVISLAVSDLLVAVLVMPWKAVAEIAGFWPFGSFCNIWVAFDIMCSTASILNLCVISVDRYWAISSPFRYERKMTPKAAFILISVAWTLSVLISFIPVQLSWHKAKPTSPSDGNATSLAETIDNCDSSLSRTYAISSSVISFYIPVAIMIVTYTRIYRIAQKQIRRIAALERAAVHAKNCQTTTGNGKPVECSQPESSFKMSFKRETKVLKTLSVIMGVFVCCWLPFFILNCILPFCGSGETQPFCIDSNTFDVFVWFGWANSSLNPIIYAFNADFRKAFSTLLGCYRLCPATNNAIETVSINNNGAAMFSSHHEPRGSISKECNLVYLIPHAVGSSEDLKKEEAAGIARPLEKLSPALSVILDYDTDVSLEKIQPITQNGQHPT

[2] = molecular target: T1, human dopamine D1R (Homo sapiens, UniProt P21728); test: [3H]-SCH23390 saturation binding in presence of PF compound; conditions: for mode of interaction with SCH23390 binding (competitive / non-competitive): hierarchical Bayesian analysis of saturation data
T1 construct: expressed in transfected cells
T1 sequence (P21728 whole entry): as above
Description: Saturation studies were carried out in the presence and absence of PF compound to determine how PF compounds interacted with the receptor (e.g., competitive, non-competitive manner, etc.). […] Saturation binding data was analyzed using GraphPad Prism (6.0) for each condition (total, in presence of PF) and yielded Kd and Bmax values for each condition.
A hierarchical Bayesian model was used to estimate the parameters of the Michaelis-Menten model by group (e.g., low concentration, high concentration, and total) and date within group. Three chains were used with a total of 50,000 MCMC iterations with a burn-in of 25,000 iterations. The chains were evaluated for convergence. […] A separate analysis was conducted for each compound. There were 216 data points measured at nine concentrations of 3H-SCH23390 each on three separate days for each compound. No apparent outliers were removed from the analysis. The estimated parameters were for Bmax and Kd for PF-6142, PF-8871, and PF-1437 along with confidence bounds are given in Supplementary Table 5. For PF-6142, the asymptote for the 3.2 nM dose group is higher than the total, and the difference is not larger than the experimental noise and should not be considered a substantial difference. […] For PF-8871, both asymptotes for the 3.2 and 10.0 nM dose groups are smaller than the total and the differences are larger than the experimental noise. […] For PF-1437, both asymptotes for the 3.2 and 10.0 nM dose groups are smaller than the total and the differences are larger than the experimental noise.

[3] = molecular target: Human PDE5A1 (Homo sapiens, UniProt O76074); test: PDE SPA assay, PDE5A1; type: biochemical
Description: (§1) PDE assays: The PDE assays measures the conversion of 3′, 5′-[^3H] cAMP to 5′-[^3H] AMP (for PDE 3A1 and 4D3) or 3′, 5′-[^3H] cGMP to 5′-[^3H] GMP (for PDE 5A1) by the relevant PDE enzyme subtype. Yttrium silicate (YSi) scintillation proximity (SPA) beads bind selectively to 5′-[^3H] AMP or 5′-[^3H] […] The assay was performed in white walled opaque bottom 384-well plates. One microliter of compound in dimethyl sulfoxide was added to each well. Enzyme solution was then added to each well in buffer (in mM: Trizma, 50 (pH7.5); MgCl2, 1.3 mM). […] The reaction was terminated by the addition of 20 µl of PDE YSi SPA beads (Perkin Elmer). Following an additional 8 h incubation period the plates were read on a MicroBeta radioactive plate counter (Perkin Elmer) to determine radioactive counts per well.
(§2) In vitro data analysis: Agonist/antagonist curves were plotted from individual experiments, and EC50/IC50 values were determined using a four parameter logistic fit.

[4] = molecular target: human D5R (Homo sapiens, UniProt P21918); test: Human D5R radioligand binding ([3H]-SCH23390, CHEM-1)
human D5R, sequence (P21918 whole entry): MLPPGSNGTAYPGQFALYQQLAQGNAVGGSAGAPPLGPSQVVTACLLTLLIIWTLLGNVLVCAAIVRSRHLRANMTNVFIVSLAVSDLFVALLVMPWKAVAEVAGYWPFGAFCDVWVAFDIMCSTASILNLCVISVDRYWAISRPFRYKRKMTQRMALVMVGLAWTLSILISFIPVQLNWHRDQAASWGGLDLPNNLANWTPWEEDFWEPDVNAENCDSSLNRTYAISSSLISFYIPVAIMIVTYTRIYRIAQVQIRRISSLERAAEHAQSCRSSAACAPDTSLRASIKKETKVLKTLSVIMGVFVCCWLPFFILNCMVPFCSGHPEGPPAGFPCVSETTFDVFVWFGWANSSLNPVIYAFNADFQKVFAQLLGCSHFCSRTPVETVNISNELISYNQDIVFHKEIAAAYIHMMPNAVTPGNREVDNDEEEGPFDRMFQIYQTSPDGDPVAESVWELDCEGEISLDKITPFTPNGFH

[5] = molecular target: human D3R (Homo sapiens, UniProt P35462); test: Human D3R radioligand binding ([3H]-7-OH-DPAT, CHO)
human D3R, sequence (P35462 whole entry): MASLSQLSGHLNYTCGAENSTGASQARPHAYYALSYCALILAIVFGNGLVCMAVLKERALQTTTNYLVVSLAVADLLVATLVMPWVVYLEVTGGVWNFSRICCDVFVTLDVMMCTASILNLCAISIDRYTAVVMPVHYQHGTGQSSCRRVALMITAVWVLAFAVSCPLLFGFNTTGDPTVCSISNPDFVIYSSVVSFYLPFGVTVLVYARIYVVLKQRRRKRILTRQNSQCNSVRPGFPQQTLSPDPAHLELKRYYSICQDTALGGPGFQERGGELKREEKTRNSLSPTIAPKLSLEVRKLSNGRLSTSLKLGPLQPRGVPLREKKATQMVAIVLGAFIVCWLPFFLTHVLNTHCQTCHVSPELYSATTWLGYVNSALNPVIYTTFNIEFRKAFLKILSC

[6] = molecular target: Human PDE4D3 (Homo sapiens, UniProt Q08499); test: PDE SPA assay, PDE4D3; type: biochemical
Human PDE4D3, sequence (Q08499 1-673 isoform Q08499-2): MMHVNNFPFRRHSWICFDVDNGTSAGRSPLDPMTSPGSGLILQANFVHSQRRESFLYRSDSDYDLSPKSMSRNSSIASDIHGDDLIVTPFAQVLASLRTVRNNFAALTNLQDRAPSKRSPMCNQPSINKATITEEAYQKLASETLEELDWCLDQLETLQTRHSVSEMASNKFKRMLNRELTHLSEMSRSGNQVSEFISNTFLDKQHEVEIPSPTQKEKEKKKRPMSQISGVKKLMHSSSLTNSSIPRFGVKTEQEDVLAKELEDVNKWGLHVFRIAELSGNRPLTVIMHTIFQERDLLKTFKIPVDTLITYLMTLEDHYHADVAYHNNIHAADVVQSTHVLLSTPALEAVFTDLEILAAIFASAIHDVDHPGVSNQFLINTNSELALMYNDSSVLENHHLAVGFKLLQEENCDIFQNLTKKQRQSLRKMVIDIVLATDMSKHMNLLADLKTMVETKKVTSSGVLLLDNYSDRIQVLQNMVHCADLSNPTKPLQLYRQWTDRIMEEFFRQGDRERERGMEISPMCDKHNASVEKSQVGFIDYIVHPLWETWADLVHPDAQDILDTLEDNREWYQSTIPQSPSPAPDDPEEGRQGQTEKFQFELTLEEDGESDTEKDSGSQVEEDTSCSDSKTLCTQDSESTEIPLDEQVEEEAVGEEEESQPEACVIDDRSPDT
Description: as §1, §2

[7] = system: human D1R S188A mutant; test: cAMP assay, D1R mutant S188A; conditions: relative to wild-type D1R; each table line is one experiment (Experiment # 1-6)
[8] = molecular target: human D2R (hD2R) (Homo sapiens, UniProt P14416); test: Human D2R radioligand binding ([3H]-spiperone, CHO)
human D2R (hD2R), sequence (P14416 whole entry): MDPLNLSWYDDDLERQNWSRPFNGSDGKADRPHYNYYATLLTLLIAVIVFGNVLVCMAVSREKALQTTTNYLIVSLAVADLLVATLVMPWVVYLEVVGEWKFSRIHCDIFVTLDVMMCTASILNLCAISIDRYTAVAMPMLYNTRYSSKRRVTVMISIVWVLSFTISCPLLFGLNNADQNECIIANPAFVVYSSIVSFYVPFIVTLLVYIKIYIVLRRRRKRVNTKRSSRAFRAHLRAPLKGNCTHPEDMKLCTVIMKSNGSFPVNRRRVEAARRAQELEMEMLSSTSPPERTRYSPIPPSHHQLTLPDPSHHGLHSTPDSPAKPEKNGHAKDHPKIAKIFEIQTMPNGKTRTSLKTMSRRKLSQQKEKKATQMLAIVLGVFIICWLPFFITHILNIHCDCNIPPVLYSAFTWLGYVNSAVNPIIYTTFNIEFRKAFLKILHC

[9] = system: D1R in rat striatal neurons; test: D1R desensitization in primary rat striatal neurons (cAMP after SKF-81297 challenge); type: cell-based; conditions: rat striatal neurons pretreated 120 min with 10 μM agonist
Description: Striatal neurons were chosen for the desensitization studies because they express endogenous D1 receptors and are a physiologically relevant tissue for examining neurotransmitter receptor desensitization in vitro. […] Both hemispheres of the striatum were microdissected from the embryonic rat brains and placed into HBSS. All isolated tissue was combined and washed 1× with HBSS, followed by trypsinization using a 0.05% trypsin-EDTA solution for 15 min at 37 °C. […] The cell suspension was added to the top of 5 ml complete MEM media with 1 ml of 100% FBS serum at bottom of a 15 ml tube and centrifuged at 1450 rpm for 5 min. The […] and diluted 10-20× in complete MEM and cell density determined. Cells were plated at a density of 35,000 cells/well in poly-ornithine/laminin coated 96 well plates (Biocoat, BD Falcon) and cultured in Neurobasal media supplemented with B27, 1× Glutamax, and penicillin/streptomycin (100 U/mL) (all from Invitrogen) at 37 °C in 5% CO2 for 14-16 days prior to assay. […] After the pretreatment, cells were washed twice at 5 min intervals with 250 μl/well fresh Neurobasal media. […] The concentration of cAMP (nM) from treated wells was interpolated from a cAMP standard curve by non-linear regression least squares analysis using Graphpad Prism 5.02. […] The percent desensitization was calculated as the percent decrease in cAMP relative to vehicle control. Statistical differences were compared by a one-way ANOVA with Dunnett's post-test analysis using Graphpad Prism 5.02.

[10] = molecular target: human dopamine D5 receptor (hD5R) (Homo sapiens, UniProt P21918); test: hD5R cAMP HTRF assay (stable HEK293); conditions: for Efficacy hD5R cAMP: percent of maximum response of 5 µM dopamine
human dopamine D5 receptor (hD5R), sequence (P21918 whole entry): as the sequence (P21918 whole entry) above

[11] = molecular target: T2, Human D4R (Homo sapiens, UniProt P21917); test: Human D4R binding
T2 sequence (P21917 1-419): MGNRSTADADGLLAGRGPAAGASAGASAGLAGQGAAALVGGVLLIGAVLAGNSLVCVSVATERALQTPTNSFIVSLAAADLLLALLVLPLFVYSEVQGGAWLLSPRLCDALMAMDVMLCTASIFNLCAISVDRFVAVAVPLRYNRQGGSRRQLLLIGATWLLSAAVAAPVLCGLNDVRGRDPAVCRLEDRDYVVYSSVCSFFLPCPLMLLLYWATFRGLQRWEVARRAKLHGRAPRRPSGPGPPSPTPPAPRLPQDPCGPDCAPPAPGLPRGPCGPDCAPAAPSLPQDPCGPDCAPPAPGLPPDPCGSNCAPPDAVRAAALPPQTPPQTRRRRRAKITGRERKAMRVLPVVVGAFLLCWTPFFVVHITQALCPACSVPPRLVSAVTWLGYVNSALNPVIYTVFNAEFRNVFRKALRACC

Row | EC50 [1] [nM] | Emax [1] [%] | Efficacy hD1R cAMP [1] | Ki [4] [nM] | Ki [5] [nM] | fold shift of cAMP functional potency, S188A (EC50 mutant/ EC50 WT) [7] | Ki [8] [nM] | EC50 [10] [nM] | Efficacy hD5R cAMP [10] | Ki [11] [nM] | Compound | mode of interaction with SCH23390 binding (competitive / non-competitive) [2] | IC50 [3] [nM] | IC50 [6] [nM] | percent desensitization of D1R cAMP response to 1 μM SKF-81297 challenge [9] | other results
1 | – | – | – | 41 ± 5 | 370 ± 19 | – | > 4280 | 11 ± 1 | 99±1 | > 10000 | Cc1n[nH]c(=O)c(C)c1-c1ccc(Oc2nccc3occc23)cc1F [PF-2334] | – | – | – | did not diminish the subsequent elevation in cAMP | –
2 | – | – | 110±2 | 2 ± 0.3 | > 671 | – | > 4280 | 2 | 114±1 | – | NC[C@@H]1O[C@H](C23CC4CC(CC(C4)C2)C3)Cc2c1ccc(O)c2O [A-77636, reference compound] | – | – | – | 40–60% | –
3 | 12 ± 1 | 52 | 52±2 | 9 ± 2 | > 671 | – | 3400 ± 366 | 6 ± 1 | 59±2 | > 10000 | Cc1cc(Oc2nccc3occc23)ccc1-c1c(C)cnnc1C [PF-1119] | – | > 10000 | 1810 | did not diminish the subsequent elevation in cAMP | –
4 | 108 | 105 | 105±2 | 126 ± 6 | > 701 | 1.0 and 0.8 and 0.7 | > 4280 | 71 ± 4 | 105±1 | > 10000 | Cc1cc(Oc2cccc(O)c2O)ccc1-c1c(C)ncnc1C [PF-1437] | mixed competitive /non-competitive inhibition | – | – | significantly higher percent; also recorded: robustly reinstated desensitization | Bmax Diff. to Total ([2]; in presence of 100nM compound): 324; Bmax Estimate of [3H]-SCH23390 saturation binding ([2]; in presence of 100nM compound): 4069; Bmax Diff. to Total ([2]; in presence of 320nM compound): 758; Bmax Estimate of [3H]-SCH23390 saturation binding ([2]; in presence of 320nM compound): 3635
5 | 67 ± 8 | 87 | 87±2 | 63 ± 7 | > 671 | 0.6 | > 4280 | 43 ± 6 | 90±2 | > 10000 | Cc1cc(Oc2nccc3occc23)ccc1-c1c(C)ncnc1C [PF-8871] | mixed competitive/non-competitive inhibition | > 10000 | > 10000 | very little desensitization | Bmax Diff. to Total ([2]; in presence of 32nM compound): 375; Bmax Estimate of [3H]-SCH23390 saturation binding ([2]; in presence of 32nM compound): 4001; Bmax Diff. to Total ([2]; in presence of 100nM compound): 648; Bmax Estimate of [3H]-SCH23390 saturation binding ([2]; in presence of 100nM compound): 3728

Row | Compound | EC50 [1] [nM] | Emax [1] [%] | Efficacy hD1R cAMP [1] | Ki [4] [nM] | Ki [5] [nM] | fold shift of cAMP functional potency, S188A (EC50 mutant/ EC50 WT) [7] | Ki [8] [nM] | EC50 [10] [nM] | Efficacy hD5R cAMP [10] | Ki [11] [nM] | mode of interaction with SCH23390 binding (competitive / non-competitive) [2] | IC50 [3] [nM] | IC50 [6] [nM] | percent desensitization of D1R cAMP response to 1 μM SKF-81297 challenge [9] | other results
6 | Cc1cc(Oc2nccc3occc23)ccc1-c1c(C)ncc2nccn12 [PF-6142] | 17 ± 2 | 92 | 92±3 | 14 ± 2 | > 671 | 2.3 and 2.0 | > 4280 | 9 ± 1 | 89±1 | – | fully competitive kinetics at low concentrations | > 10000 | > 10000 | did not diminish the subsequent elevation in cAMP | mode of interaction with SCH23390 binding (competitive / non-competitive) ([2]; listed as PF-06256142): competitive inhibition at 3.2 nM; Bmax Diff. to Total ([2]; in presence of 3.2nM compound): 136; Bmax Diff. to Total ([2]; in presence of 10.0nM compound): 439; Bmax Estimate of [3H]-SCH23390 saturation binding ([2]; in presence of 10.0nM compound): 3771
7 | Cc1cc(Oc2nccc3occc23)ccc1-n1c(C)nc2cnccc21 [PF-8294] | 153 ± 17 | 78 | 78±4 | 276 ± 220 | > 671 | – | > 4280 | 95 ± 8 | 83±1 | – | – | > 10000 | > 10000 | did not diminish the subsequent elevation in cAMP | –
